Laboratory results as given in patent publication US5763435A, “Sulfate conjugates of ursodeoxycholic acid, and their beneficial use in inflammatory disorders” (priority 1995, dated 1998).
Several values for one entry are separate records, joined by “and”; a condition that tells them apart may be missing. Identical values can stand only once.

What was measured:
[1] = Urinary excretion of UDCA after oral administration; assay type: in vivo, Sprague-Dawley rats
Procedure: (§1) Male Sprague-Dawley rats (Harlan Sprague-Dawley, Inc., Indianapolis, Ind.), weighing 210-290 g, were maintained on a 12-hour light-dark cycle and fed standard laboratory chow ad libitum for 3 days. The animals were then transferred to metabolic cages in which they were housed individually and fed the same diet. UDCA, UDCA 3-sulfate, UDCA 7-sulfate, and UDCA 3,7-disulfate were administered by gavage at a dose of 250 mg/day for 4 consecutive days. Each group comprised 3-6 rats. Body weights of the animals were measured each day. On day 5, the animals were killed by exsanguination under ether anesthesia. Plasma was collected and frozen at -20° C. The liver was removed, rinsed in normal saline, and flash-frozen in liquid nitrogen. Urine and feces were collected every 24 hours and frozen at -20° C. All animals received humane care in compliance with the "Guide for the Care and Use of Laboratory Animals" prepared by the National Academy of Sciences (National Institutes of Health publication no. 86-23, revised in 1985).
In each group, urine from all animals was pooled on the individual days of collection. Day 1 represented the baseline sample, and samples from days 2, 3 and 4 were obtained during bile acid administration. After the addition of nordeoxycholic acid (1 μg), bile acids were quantitatively extracted from portions of urine (3 mL) and plasma (1 mL) using Bond-Elut C18 cartridges. After liquid-solid extraction, isolation and separation of unconjugated and conjugated bile acids were achieved by lipophilic anion-exchange chromatography on Lipidex-DEAP. Solvolysis of bile acid conjugates and isolation of the hydrolyzed products were performed as described above, and bile acids were converted to volatile methyl ester-trimethylsilyl ether derivatives.
GC-MS analysis was performed using a Finnigan 4635 mass spectrometer (Finnigan Inc., San Jose, Calif.) that housed an identical gas chromatography column operated under the same conditions. Electron ionization (70 eV) mass spectra were recorded over the mass range of 50-800 daltons by repetitive scanning of the eluting components. Identification of bile acids was made on the basis of the gas chromatography retention index relative to a homologous series of n-alkanes, referred to as the methylene unit value, and the mass spectrum compared with authentic standards. Quantification of bile acids was achieved using gas chromatography by comparing the peak height response of the individual bile acids with the peak height response obtained from the internal standard.
Liquid secondary ionization mass spectrometry negative ion spectra of urine samples were obtained after placing approximately 1 μL of the methanolic extract onto a small drop of a glycerol/methanol matrix spotted on a stainless steel probe. This probe was introduced into the ion source of a VG Autospec Q mass spectrometer, and a beam of fast atoms of cesium, generated from cesium iodine (35 KeV), was fired at the target containing the sample. Negative ion spectra were obtained over the mass range of 50-1000 daltons.
Data are expressed as mean±SEM or as mean values of all animals when extracts were pooled before analysis. Results from different groups were compared using paired and unpaired two-tailed Student's t-test. P values of <0.05 were considered statistically significant.

[2] = tested on: Principal Bile Acids in Jejunum; assay: Bile acid composition of jejunum after oral administration (GC-MS); assay type: in vivo, Sprague-Dawley rats; conditions: for UDCA mass in jejunum / Chenodeoxycholic acid mass in jejunum / Cholic acid mass in jejunum / Cholic acid percent of jejunal bile acids / Deoxycholic acid mass in jejunum / Deoxycholic acid percent of jejunal bile acids / Lithocholic acid mass in jejunum / Lithocholic acid percent of jejunal bile acids / Total bile acid mass in jejunum / UDCA percent of jejunal bile acids / Δ^22-UDCA mass in jejunum / Δ^22-UDCA percent of jejunal bile acids / Δ^22-β-Muricholic acid mass in jejunum / Δ^22-ω-Muricholic acid mass in jejunum / α-Muricholic acid mass in jejunum / β-Muricholic acid mass in jejunum / ω-Muricholic acid mass in jejunum: oral gavage 250 mg/day, 4 days, mean ± SEM; for UDCA mass in jejunum: 24 hours after final dose; for Conjugation pattern of UDCA in jejunum: anion-exchange chromatography
Procedure: as §1
Intestinal contents were weighed and dissected into small pieces. In each group, feces (100 mg) from all animals were pooled on day 4 of the study and then ground into a fine paste. All samples were sonicated and sequentially refluxed in 80% methanol for 2 hours and chloroform/methanol (1:1) for 1 hour. Samples were taken to dryness, and the dried extracts were resuspended in 80% methanol (20 mL). Fractions of the methanolic extract (1/40 of intestinal contents and 1/20 of feces samples) were removed and the internal standard nordeoxycholic acid (10 μg) was added. This extract was diluted with 0.01 mol/L acetic acid (20 mL) and passed first through a column of Lipidex 1000 (bed size, 4×1 cm; Packard Instrument Co., Groningen, The Netherlands) and then through a Bond-Elut C18, cartridge (Analytichem, Harbor City, Calif.). Bile acids were recovered by elution of the Lipidex 1000 column and the Bond-Elut cartridge with methanol (20 mL and 5 mL, respectively), and the combined extracts were taken to dryness. Unconjugated bile acids were isolated and separated from neutral sterol and conjugated bile acids by lipophilic anion exchange chromatography on diethylaminohydroxypropyl Sephadex LH-20 (Lipidex-DEAP; Package Instrument Co.). Recovery of unconjugated bile acids was achieved by elution with 0.1 mol/L acetic acid in 72% ethanol (7 mL) followed by evaporation of the solvents. Total conjugated bile acids were recovered with 9 mL of 0.3 mol/L acetic acid in 72% ethanol, pH 9.6. Salts were removed by passage through a Bond-Elut C18 cartridge after addition of nordeoxycholic acid (10 μg), and conjugated bile acids were recovered by elution with 5 mL of methanol. Solvolysis was performed in a mixture of methanol (1 mL), distilled tetrahydrofuran (9 mL), and 1 mol/L trifluoracetic acid in dioxane (0.1 mL) and heated to 45° C for 2 hours. After solvolysis, unconjugated bile acids were isolated by chromatography on Lipidex-DEAP. Methyl ester derivatives were prepared by dissolving the sample in methanol (0.3 mL) and reacting with 2.7 mL of freshly distilled ethereal diazomethane. After evaporation of the reagents, the methyl ester derivatives were converted to trimethylsilyl ethers by the addition of […] of Tri-Sil reagent (Pierce Chemicals, Rockford, Ill.). A column of Lipidex 5000 (Packard Instrument Co.) was used to remove derivatizing reagents and to purify the sample.
Samples of liver (100 mg) were ground to a fine paste, and bile acids were extracted by reflux and passage through a column of Lipidex 1000 as described above for intestinal contents and feces. Group separation of bile acids, according to their mode of conjugation was achieved by lipophilic anion-exchange chromatography. […]

| Structure (SMILES) | Urinary excretion of sulfate conjugates of UDCA [1] [nmol/day] | Urinary unconjugated UDCA excretion [1] [nmol/day] | Δ^22 UDCA in jejunum (in words) ([2]; oral) | Chenodeoxycholic acid mass in jejunum [2] [mg] | Cholic acid mass in jejunum [2] | Cholic acid percent of jejunal bile acids [2] [%] | Deoxycholic acid mass in jejunum [2] [mg] | Deoxycholic acid percent of jejunal bile acids [2] [%] | Lithocholic acid mass in jejunum [2] [mg] | Lithocholic acid percent of jejunal bile acids [2] [%] | Total bile acid mass in jejunum [2] [mg] | UDCA percent of jejunal bile acids [2] [%] | Δ^22-UDCA mass in jejunum [2] [mg] | Δ^22-UDCA percent of jejunal bile acids [2] [%] | Δ^22-β-Muricholic acid mass in jejunum [2] [mg] | Δ^22-ω-Muricholic acid mass in jejunum [2] [mg] | α-Muricholic acid mass in jejunum [2] [mg] | β-Muricholic acid mass in jejunum [2] [mg] | ω-Muricholic acid mass in jejunum [2] [mg] | Conjugation pattern of UDCA in jejunum ([2]; oral) | further results |
| --- | --- | --- | --- | --- | --- | --- | --- | --- | --- | --- | --- | --- | --- | --- | --- | --- | --- | --- | --- | --- | --- |
| C[C@H](CCC(=O)O)[C@H]1CC[C@H]2[C@@H]3[C@@H](O)C[C@@H]4C[C@H](O)CC[C@]4(C)[C@H]3CC[C@]12C [UDCA, 3 alpha, 7 beta-dihydroxy-5 beta-cholan-24oic acid, reference compound] | 4.6 | 642.7 | detected in large proportions and amounts | 0.98 | 4.68 mg and 4.68 ± 0.65 mg | 16.8 | 1.56 | 5.6 | 0.26 | 1.0 | 27.77 | 35.9 | 4.00 | 14.5 | 0.85 | 0.30 | 0.75 | 4.12 | 0.31 | predominantly glyco- and tauro-UDCA, smaller amounts of unconjugated UDCA, and negligible amounts of sulfated UDCA | UDCA mass in jejunum [2]: 9.95 mg and 9.95 ± 0.49 mg |
| C[C@H](CCC(=O)O)[C@H]1CC[C@H]2[C@@H]3[C@@H](O)C[C@@H]4C[C@H](OS(=O)(=O)O)CC[C@]4(C)[C@H]3CC[C@]12C [UDCA-3S, ursodeoxycholic acid 3-sulfate] | 2.7 | 5.2 | detected in large proportions and amounts | 0.43 | 8.49 mg | 37.7 | 1.96 | 8.4 | 0.07 | 0.3 | 22.57 | 16.4 | 2.04 | 9.2 | 2.09 | 0.24 | 0.18 | 3.02 | 0.37 | substantial proportions of amidated UDCA | UDCA mass in jejunum ([2]; listed as UDCA 3-SULFATE): 3.67 mg; UDCA mass in jejunum ([2]; listed as UDCA 3-sulfate): 3.67 ± 0.45 mg; Change in proportion of cholic acid in jejunum (in words) ([2]; oral, vs control): decrease (P=0.05) in the proportion of cholic acid but to a lesser extent than UDCA |
| C[C@H](CCC(=O)O)[C@H]1CC[C@H]2[C@@H]3[C@@H](OS(=O)(=O)O)C[C@@H]4C[C@H](O)CC[C@]4(C)[C@H]3CC[C@]12C [UDCA-7S, ursodeoxycholic acid 7-sulfate] | 317.8 | 1.8 | – | 0.26 | 15.78 mg | 69.0 | 0.76 | 3.3 | 0.01 | 0.1 | 22.91 | 4.7 | 0.70 | 3.1 | 1.49 | 0.26 | 0.04 | 2.21 | 0.31 | – | UDCA mass in jejunum ([2]; listed as UDCA 7-SULFATE): 1.09 mg; UDCA mass in jejunum ([2]; listed as UDCA 7-sulfate): 1.09 ± 0.34 mg |
| C[C@H](CCC(=O)O)[C@H]1CC[C@H]2[C@@H]3[C@@H](OS(=O)(=O)O)C[C@@H]4C[C@H](OS(=O)(=O)O)CC[C@]4(C)[C@H]3CC[C@]12C [UDCA-DS, ursodeoxycholic acid 3,7-disulfate] | 217.1 | 1.3 | – | 0.12 | 6.78 mg | 66.0 | 0.5 | 5.2 | – | 0 | 10.24 | 2.0 | 0.21 | 2.1 | 0.34 | 0.12 | – | 1.70 | 0.24 | – | UDCA mass in jejunum ([2]; listed as UDCA 3,7-SULFATE): 0.21 mg; UDCA mass in jejunum ([2]; listed as UDCA 3,7-disulfate): 0.21 ± 0.07 mg |
